Measured values reported in PMC10298530, “Synthesis and Anticancer Activity of A-Ring-Modified Derivatives of Dihydrobetulin” (International Journal of Molecular Sciences, 2023).
Values joined by “and” are separate entries in the source; they are usually repeats but may differ in a detail not shown here. Equal entries are not always repeated. Where two headings read alike, the source gives them in different places.

How the values were obtained:
MS = experiment: MTT cell viability assay, MS; format: cell-based, human; conditions: Homo sapiens;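 as to IC50 (mean ± SD): MS is a melanocyte cell line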
Description: (§1) Blokhin National Medical Research Center of Oncology (the Ministry of Health of the Russian Federation, Moscow).

HBL-100/Dox cells [1] = experiment: Hoechst 33342 / TMRE fluorescent microscopy, HBL-100/Dox; format: cell-based, human; conditions: Hoechst 33342, 16 h, IC50 values (MK 1.8 µM)
Protocol: (§2) The DNA marker, termed Hoechst 33342 Ready Flow Reagent, was used as a stock solution (Invitrogen, ThermoFisher Scientific, USA). The mitochondrial marker, LumiTracker Mito TMRE (tetramethylrhodamine, ethyl ester; Lumiprobe, Moscow, Russia), was dissolved in DMSO as 1.0 mM stock solution. The marker of reactive oxygen species, H2DCFDA (Lumiprobe, Moscow, Russia), was dissolved in DMSO as 100.0 μM stock solution. After incubation, the cells were incubated with FBS-free culture medium containing the dye mixture of Hoechst 33342 (final concentration 1.0 μM) and LumiTracker Mito TMRE (final concentration 1.0 μM), or H2DCFDA dye taken alone (final concentration 1.0 μM), for 30 min at 37 °C in darkness. Fluorescence, at 420 nm (Hoechst 33342), at 510 nm (TMRE), and at 575 nm (H2DCFDA), of the test cultures (including controls) was analyzed immediately using a fluorescence microscope CKX 53 (Olympus, Tokyo, Japan). The TMRE fluorescence intensity was quantified using Fiji (ImageJ).

HBL-100 cells [2] = experiment: Annexin V-FITC/PI assay, HBL-100; format: cell-based, human; conditions: 16 h, dose IC50
Protocol: (§3) Briefly, after exposing the cells to the tested and control compounds for 16 h, the cells were detached with accutase (HiMedia Laboratories, Maharashtra, India) and washed with cold PBS. Then, the cells were re-suspended in 100 μL of 1 × Binding Buffer at concentration 1 × 10^6 cells/mL and incubated with 5 μL Annexin V-FITC and 5 μL propidium iodide (PI) for 15 min at room temperature in darkness. After incubation, 400 μL of 1 × Binding Buffer was added to each tube. The samples were analyzed by flow cytometry (CytoFlex S, Beckman Coulter, Brea, CA, USA) within 1 h of staining, and the findings were analyzed using a trial version of the Kaluza software (Beckman Coulter, Brea, CA, USA).

HBL-100/Dox cells [3] = experiment: Combined action of compounds, MTT assay on HBL-100/Dox cells; format: cell-based, human; conditions: 72 h, with 30 μM verapamil
Description: The results were expressed pictorially using Prism 6.0 (GraphPad Software, Boston, MA, USA).

HBL-100 = experiment: MTT cell viability assay, HBL-100; format: cell-based, human; conditions: Homo sapiens
Protocol: (§4) The cells were cultured in a humidified CO2 incubator (model 460-CE; Thermo Fisher Scientific, Waltham, MA, USA) at +37 °C and 5% CO2.
(§5) The percentage of the viable cells was calculated according to the following equation: cell viability (%) = 100 × (mean absorbance in the treatment group/mean absorbance in the control group). The results were expressed pictorially using Prism 6.0 (GraphPad Software, Boston, MA, USA).

RD TE32 = experiment: MTT cell viability assay, RD TE32; format: cell-based, human; conditions: Homo sapiens
Description: as §1

HCT116 = experiment: MTT cell viability assay, HCT116; format: cell-based, human; conditions: Homo sapiens, HCT-116; HCT116, MTT, 72 h of treatment; read-out: IC50 Values (Mean ± SD)
Description: as §1

HBL-100/Dox cells [4] = experiment: Annexin V-FITC/PI assay, HBL-100/Dox; format: cell-based, human; conditions: 16 h, dose IC50
Protocol: as §3

HBL-100 cells [5] = experiment: Cell cycle analysis (DAPI, flow cytometry), HBL-100; format: cell-based, human; conditions: for Cell cycle of HBL-100, S-phase: dose = IC50
Protocol: (§6) The cells were trypsinized and rinsed with the growth medium. Then, the cells were harvested by centrifugation at 500× g for 3 min, and the supernatant was discarded. The cells were washed with PBS (PanEco, Moscow, Russia) twice and centrifuged under similar conditions. The cells were resuspended in 500 μL of PBS, put into centrifuge tubes and fixed by adding 4.5 mL of 70% ethanol dropwise (on ice). The samples were fixed at 4 °C. Overnight, the fixed cells were centrifugally collected (1000× g, 4 °C, 5 min) and washed again with PBS. The cells were finally resuspended in DAPI with 0.1% Triton X-100 in PBS solution (10 μg/mL, Sigma–Aldrich, St. Louis, MO, USA), and stained for 30 min at room temperature in darkness. For each sample, at least 50,000 cells were analyzed using the CytoFlex S flow cytometer (Beckman Coulter, Brea, CA, USA). Cell cycle populations were quantified from DNA histograms with the FlowJo software (ver. X 10.0.7r2, FlowJo Software, San Jose, CA, USA).

HBL-100 cells [6] = experiment: Hoechst 33342 / TMRE fluorescent microscopy, HBL-100; format: cell-based, human; conditions: Hoechst 33342, 16 h, IC50 values (MK 1.0 µM)
Protocol: as §2

HBL-100/Dox = experiment: MTT cell viability assay, HBL-100/Dox; format: cell-based, human; conditions: Homo sapiens
Protocol: as §4, §5

HEK293 = experiment: MTT cell viability assay, HEK293; format: cell-based; conditions: Homo sapiens
Description: as §1

MCF-7 = experiment: MTT cell viability assay, MCF-7; format: cell-based, human; conditions: Homo sapiens, MCF7
Description: as §1

HBL-100/Dox cells [7] = experiment: Cell cycle analysis (DAPI, flow cytometry), HBL-100/Dox; format: cell-based, human; conditions: HBL-100/Dox (resistant) cells, 12-24 h, IC50
Protocol: as §6

PC-3 = experiment: MTT cell viability assay, PC-3; format: cell-based, human; conditions: Homo sapiens; PC-3, MTT, 72 h of treatment; read-out: IC50 Values (Mean ± SD)
Description: as §1

HEpG2 = experiment: MTT cell viability assay, HEpG2; format: cell-based, human; conditions: Homo sapiens
Description: as §1

Q: How did the IC50 (MS; MS, MTT, 72 h of treatment, read-out: IC50 Values (Mean ± SD)) turn out when `COc1cccc2c1C(=O)c1c(O)c3c(c(O)c1C2=O)C[C@@](O)(C(=O)CO)C[C@@H]3O[C@H]1C[C@H](N)[C@H](O)[C@H](C)O1` [Dox, doxorubicin, reference compound] was run?
A: Its IC50 is 1300 ± 200 nM.

Q: And the IC50 (MS; Table S1, MS, read-out: IC50 (mean ± SD))?
A: The IC50 was 1290 ± 160 nM.

Q: And the “number of cells with nuclear morphology changes” value (HBL-100/Dox cells [1])?
A: Its value is 9.9%.

Q: What about the Dead cells (HBL-100 cells [2]) of the same compound?
A: Its Dead cells is 1.80±0.31%.

Q: What about the Early apoptotic cells (HBL-100 cells [2]) of the same compound?
A: Its Early apoptotic cells is 12.35 ± 0.42%.

Q: What about the Late apoptotic cells (HBL-100 cells [2]) of the same compound?
A: Its Late apoptotic cells is 1.93±0.29%.

Q: What about the Viable cells (HBL-100 cells [2]) of the same compound?
A: The Viable cells was 83.89±0.82%.

Q: What about the “diminution of IC50 value of Dox in combination with verapamil” value (HBL-100/Dox cells [3]) of the same compound?
A: The value was 37 fold.

Q: And the IC50 (HBL-100; HBL-100, MTT, 72 h of treatment, read-out: IC50 Values (Mean ± SD))?
A: The IC50 was 400 ± 100 nM.

Q: And the IC50 (HBL-100; Table S1, HBL-100, read-out: IC50 (mean ± SD))?
A: Its IC50 is 350 ± 30 nM.

Q: And the IC50 (RD TE32; RD TE32, MTT, 72 h of treatment, read-out: IC50 Values (Mean ± SD))?
A: Its IC50 is 1300 ± 100 nM.

Q: And the IC50 (RD TE32; Table S1, RD TE32, read-out: IC50 (mean ± SD))?
A: Its IC50 is 1270 ± 30 nM.

Q: And the IC50 (HCT116)?
A: The IC50 was 1300 ± 300 nM.

Q: And the Dead cells (HBL-100/Dox cells [4])?
A: The Dead cells was 0.84±0.24%.

Q: And the Early apoptotic cells (HBL-100/Dox cells [4])?
A: Its Early apoptotic cells is 2.56 ± 0.36% and 2.56±0.37%.

Q: And the Late apoptotic cells (HBL-100/Dox cells [4])?
A: The Late apoptotic cells was 0.82±0.55%.

Q: What about the Viable cells (HBL-100/Dox cells [4]) of the same compound?
A: Its Viable cells is 95.74±1.10%.

Q: And the “Cell cycle of HBL-100, S-phase” value (HBL-100 cells [5]; 12 h)?
A: Its value is 48.19±0.09%.

Q: What about the “Cell cycle of HBL-100, S-phase” value (HBL-100 cells [5]; 13 h) of the same compound?
A: The value was 46.86±0.22%.

Q: And the “Cell cycle of HBL-100, S-phase” value (HBL-100 cells [5]; 14 h)?
A: The value was 48.25±0.51%.

Q: What about the “Cell cycle of HBL-100, S-phase” value (HBL-100 cells [5]; 15 h) of the same compound?
A: Its value is 57.27±0.14%.

Q: And the “Cell cycle of HBL-100, S-phase” value (HBL-100 cells [5]; 16 h)?
A: The value was 61.28±2.01%.

Q: What about the “Cell cycle of HBL-100, S-phase” value (HBL-100 cells [5]; 17 h) of the same compound?
A: The value was 56.17±1.64%.

Q: And the “Cell cycle of HBL-100, S-phase” value (HBL-100 cells [5]; 18 h)?
A: Its value is 55.42±0.92%.

Q: What about the “Cell cycle of HBL-100, S-phase” value (HBL-100 cells [5]; 24 h) of the same compound?
A: The value was 76.69±0.75%.

Q: And the “effect on cell cycle progression” value (HBL-100 cells [5]; HBL-100 (parental) cells, 12-24 h, IC50)?
A: Its value is “induced the S phase arrest”.

Q: What about the “number of cells with nuclear morphology changes” value (HBL-100 cells [6]) of the same compound?
A: Its value is 25.2%.

Q: What about the IC50 (HBL-100/Dox; HBL-100, 72 h, read-out: IC50 Values (Mean ± SD)) of the same compound?
A: The IC50 was 29600 ± 900 nM.

Q: What about the IC50 (HBL-100/Dox; HBL-100, read-out: IC50 (mean ± SD)) of the same compound?
A: Its IC50 is 29600 ± 940 nM.

Q: And the IC50 (HEK293; HEK293, MTT, 72 h of treatment, read-out: IC50 Values (Mean ± SD))?
A: Its IC50 is 400 ± 100 nM.

Q: What about the IC50 (HEK293; Table S1, HEK293, read-out: IC50 (mean ± SD)) of the same compound?
A: The IC50 was 440 ± 40 nM.

Q: And the IC50 (MCF-7; MCF-7, MTT, 72 h of treatment, read-out: IC50 Values (Mean ± SD))?
A: Its IC50 is 400 ± 100 nM.

Q: What about the IC50 (MCF-7; Table S1, MCF-7, read-out: IC50 (mean ± SD)) of the same compound?
A: The IC50 was 380 ± 90 nM.

Q: And the “effect on cell cycle progression” value (HBL-100/Dox cells [7])?
A: Its value is “induced the S phase arrest”.

Q: What about the IC50 (PC-3) of the same compound?
A: The IC50 was 12600 ± 200 nM.

Q: And the IC50 (HEpG2; HEpG2, MTT, 72 h of treatment, read-out: IC50 Values (Mean ± SD))?
A: Its IC50 is 1800 ± 300 nM.

Q: And the IC50 (HEpG2; Table S1, HEpG2, read-out: IC50 (mean ± SD))?
A: The IC50 was 1780 ± 300 nM.
